Data reported in patent publication US11510886B2, “Metformin amino acid compounds and methods of using the same” (Laboratorios Silancs S.A. DE C.V., priority 2016, dated 2022).
Where two headings read alike, the source gives them in different places.

Tests used:
[1] = tested on: rat model of streptozotocin-induced diabetes; experiment: Blood glucose levels in rat model of streptozotocin-induced diabetes, 14 days oral; details: for Blood glucose levels before TI/RI administration, Day −1: STZ-diabetic rats, before first TI/RI administration, n.d. = all values beyond ULOD of glucometer (600 mg/dl), § n=1, ¢ n=2; for Blood glucose levels before TI/RI administration, Day −1 / Blood glucose levels before TI/RI administration, Day −3 (before STZ administration): mean ± SD; for Blood glucose levels before TI/RI administration, Day −3 (before STZ administration): rats, baseline before STZ and before first TI/RI administration
[2] = for Body weight (g) On administration day / Body weight (g) On distribution day / Body weight (g) On first administration day: Mean ± SD; for Body weight (g) On distribution day: before dosing
[3] = rat, in vivo, po, 250 mg/kg
[4] = STZ-diabetic male rats, mean ± SD; for Absolute body weight, Day −3 (before STZ administration): baseline before STZ and before first TI/RI administration; for Absolute body weight, Day −1 / Absolute body weight, Day −2 (distribution of groups): before first TI/RI administration
blood glucose level = experiment: Effect of metformin compounds on the glucokinetic profile after oral glucose overload; assay type: in vivo, Rat; details: for Blood glucose level, 3 h post-glucose overload: *p<0.05, **p<0.01 vs vehicle
[5] = terms of European Pharmacopeia 7.0 section 5.11
[6] = tested on: rat model of streptozotocin-induced diabetes; details: about 18 hours after last administration, fasted; Dunnet test
[7] = diabetic rats, 14 days daily oral
[8] = tested on: GPBP, LKB1/STRADα/MO25, AMPK, AS160; experiment: In vitro phosphorylation of GPBP with LKB1 complex, AMPK and AS160; details: LKB1 complex without GPBP
GLUT4 = experiment: GPBP-1 and GLUT4 distribution in C2C12 cells (FIGS. 77 and 78); assay type: cell-based, Mice
Experimental: FIG. 77. Effects of no treatment, insulin, SLN1, SLN1 and insulin, SLN10, and SLN10 and insulin on GPBP-1 and GLUT-4 distribution in non-fused C2C12 cells after a 30 minute treatment.
FIG. 78. C2C12 cells that expressed GLUT4-GFP constitutively were incubated with SLN1 or SLN10 10 mM, or with the corresponding vehicle (control), and GLUT4 distribution was analyzed by using immunofluorescence and confocal microscopy.

C2C12 myotubes = experiment: Glucose in C2C12 myotubes cultured with M1 macrophage conditioned medium; assay type: cell-based, Mice; details: macrophages treated with 10 mM; glucose adjusted to 100 mg/100 mL (FIG. 95)
Experimental: FIG. 95. C2C12 myotubes, treated with a conditioned RAW264.7 M1 macrophages medium (stimulated with LPS and IFN-γ [M1]), accumulate glucose in the culture medium: SLN compounds reduce the “hyperglycemic” effect of the M1 medium. […]; then, the culture media were collected, and their glucose concentration adjusted to 100 mg/100 mL and used to culture C2C12 myoblasts that had been previously differentiated to myotubes in DMEM supplemented with 2% horse serum for 5 days. The glucose concentration in myotubes was determined at several times with a Glucocard (Arkray). C2C12 myotubes, cultured with conditioned media of non-stimulated (cells) macrophages, or similarly stimulated but not treated with a SLN (M1), were used as controls. The initial glucose levels (time 0) are used as a reference (100%) in each of the series.
[…]. Then the culture media were collected, their glucose concentration adjusted to 100 mg/100 mL and used to culture C2C12 myoblasts that had been previously differentiated to myotubes in DMEM supplemented with 2% horse serum for 5 days. The glucose concentration of the myotube cultures was determined at different times with Glucocard (Arkray). The controls used were the C2C12 cultured with media conditioned with no stimulated macrophages (cells) or with M1 conditioned media. The initial glucose levels (time 0) were used as a reference (100%) in each series.

[9] = Groups L-U, 750 mg/kg, first column of this head
[10] = Groups L-U, 750 mg/kg, second column of this head
[11] = rat, 750 mg/kg referred to metformin base, mean ± SD, *p<0.05 vs vehicle
[12] = rat, 750 mg/kg referred to metformin base, mean ± SD

| Molecule | Blood glucose levels before TI/RI administration, Day −1 [1] | Blood glucose levels before TI/RI administration, Day −3 (before STZ administration) [1] [mg/dL] | Body weight (g) On administration day ([2]; Groups B-K, 250 mg/kg) [g] | Body weight (g) On distribution day ([2]; Groups B-K, 250 mg/kg) [g] | Body weight (g) On distribution day ([2]; Groups L-U, 750 mg/kg) [g] | Body weight (g) On first administration day [2, 9] [g] | Body weight (g) On first administration day [2, 10] [g] | AUC(0-24) [3] [µg·h/mL] | Cmax [3] [ng/mL] | Metformin base concentration in plasma, 0.5 h post-administration [3] [µg/mL] | Metformin base concentration in plasma, 1 h post-administration [3] [µg/mL] | Metformin base concentration in plasma, 2 h post-administration [3] [µg/mL] | Metformin base concentration in plasma, 4 h post-administration [3] [µg/mL] | Metformin base concentration in plasma, 8 h post-administration [3] [µg/mL] | Metformin base concentration in plasma, 24 h post-administration [3] [µg/mL] | Absolute body weight, Day −3 (before STZ administration) [4] [g] | Absolute body weight, Day −1 [4] [g] | Absolute body weight, Day −2 (distribution of groups) [4] [g] | Blood glucose level, 0.25 h post-glucose overload (blood glucose level; [11]) [mg/dL] | GLUT4 distribution (GLUT4) | other results |
| --- | --- | --- | --- | --- | --- | --- | --- | --- | --- | --- | --- | --- | --- | --- | --- | --- | --- | --- | --- | --- | --- |
| CN(C)C(=N)NC(=N)N.NC(=O)C[C@H](N)C(=O)O [Metformin asparaginate, metformin asparaginate] | 573.00^§ ± n.d.^§ mg/dL | 116.33 ± 5.51 | 191.98 ± 10.26 | 186.85 ± 11.32 | 188.40 ± 10.50 | 201.60 ± 5.61 | 196.93 ± 10.40 | 153.76 | 16270 | 10.72 ± 2.33 | 8.40 ± 1.12 | 9.74 ± 1.24 | 16.27 ± 2.89 | 7.56 ± 1.49 | 0.39 ± 0.13 | 233.47 ± 15.23 | 209.73 ± 12.66 | 214.13 ± 12.67 | 94.50 ± 24.31 |  | blood glucose level vs vehicle, after the oral glucose overload (blood glucose level; 750 mg/kg for five days, glucose 3 g/kg, isolated time points 0.25-4 hours, Dunn's test): statistically significant decreases; Blood glucose level, 0.5 h post-glucose overload (blood glucose level; [12]): 93.75 ± 19.14 mg/dL; Blood glucose level, 2 h post-glucose overload (blood glucose level; [12]): 80.00 ± 10.68 mg/dL; Blood glucose level, 3 h post-glucose overload (blood glucose level; [12]): 86.50 ± 2.65 mg/dL; Blood glucose level, 4 h post-glucose overload (blood glucose level; [11]): 87.00 ± 8.60 mg/dL; Blood glucose level, 6 h post-glucose overload (blood glucose level; [12]): 78.50 ± 16.03 mg/dL; Blood glucose level, pre-glucose overload (blood glucose level; [11]): 86.50 ± 14.62 mg/dL; Physical form (hygroscopicity) [5]: Deliquescent; plasma glucose levels at the time of sacrifice [6]: significantly higher |
| CC(C)[C@H](N)C(=O)O.CN(C)C(=N)NC(=N)N [Metformin valinate, metformin valinate] | 592.00^§ ± n.d.^§ mg/dL | 120.00 ± 1.73 | 193.85 ± 7.65 | 186.67 ± 11.37 | 190.28 ± 6.26 | 206.48 ± 10.52 | 194.90 ± 4.71 | 123.05 | 13700 | 8.75 ± 0.50 | 11.56 ± 2.71 | 12.90 ± 2.38 | 13.70 ± 2.55 | 4.79 ± 0.38 | 0.21 ± 0.09 | 233.50 ± 9.71 | 213.90 ± 16.31 | 217.43 ± 14.43 | 102.50 ± 12.07 |  | blood glucose levels 2 hours after administration on day 2 vs diabetic animals treated with vehicle ([1]; diabetic rats, 250 mg/kg as metformin base): significantly lower blood glucose levels; macroscopic necropsy findings ([2]; 750 mg/kg for five days): small additional lobe; Blood glucose level, 0.5 h post-glucose overload (blood glucose level; [12]): 101.00 ± 14.90 mg/dL; Blood glucose level, 1 h post-glucose overload (blood glucose level; rat, 750 mg/kg referred to metformin base, 1 h post-glucose overload, mean ± SD, *p<0.05 vs vehicle): 100.25 ± 15.44 mg/dL; Blood glucose level, 2 h post-glucose overload (blood glucose level; [12]): 97.00 ± 14.54 mg/dL; Blood glucose level, 3 h post-glucose overload (blood glucose level; [12]): 93.50 ± 18.91 mg/dL; Blood glucose level, 4 h post-glucose overload (blood glucose level; [11]): 86.50 ± 10.15 mg/dL; Blood glucose level, 6 h post-glucose overload (blood glucose level; [12]): 92.75 ± 5.56 mg/dL; Blood glucose level, pre-glucose overload (blood glucose level; [11]): 90.25 ± 3.86 mg/dL; Physical form (hygroscopicity) ([5]; listed as 14. VALINE): Hygroscopic solid; Physical form (hygroscopicity) ([5]; listed as valine): hygroscopic; mortality [7]: found dead on the day 9 of study; plasma glucose levels at the time of sacrifice [6]: significantly higher |
| CN(C)C(=N)N=C(N)N [metformin, 3-(diaminomethylidene)-1,1-Dimethylguanidine] |  |  |  |  |  |  |  |  |  |  |  |  |  |  |  |  |  |  |  | levels lower than insulin | LKB1 autophosphorylation and STRADα phosphorylation [8]: trigger a discrete LKB1 autophosphorylation |
| Metformin glycinate |  |  |  |  |  |  |  |  |  |  |  |  |  |  |  |  |  |  |  | very intense accumulation of GLUT4 in the perinuclear region and in the plasma membrane | glucose concentration in myotubes kept in M1 macrophage-conditioned medium (C2C12 myotubes): kept values at “normoglycemic” levels |
| insulin: insulin, comparator for GLUT4 distribution |  |  |  |  |  |  |  |  |  |  |  |  |  |  |  |  |  |  |  | GLUT4 distribution to the cell membrane increased |  |
